In patent US20250127937A1, “FAP INHIBITOR” (UNIVERSITÄT HEIDELBERG, priority 2018, published 2025):

Assays:
HT-1080-FAP cells = experiment: Efflux experiments in HT-1080-FAP cells; assay type: cell-based, human; conditions: after 24 h in compound-free medium
Protocol: Radioligand binding studies were performed using HT-1080-FAP cells. The radiolabeled compound was added to the cell culture and incubated for different time intervals ranging from 10 min to 24 h. Competition experiments were performed by simultaneous exposure to unlabeled (10^−5 M to 10^−9M) and radiolabeled compound for 60 min. For efflux experiments, radioactive medium was removed after incubation for 60 min and replaced by non-radioactive medium for time intervals ranging from 1 to 24 h. For internalization experiments, surface bound activity was removed by incubating the cells with 1 M glycine-HCl buffer for 10 min. The radioactivity was measured using a γ-counter, normalized to 1 mio cells and calculated as percentage of applied dose (% ID).
For radioligand binding studies, cells were seeded in 6-well plates and cultivated for 48 h to a final confluence of approx. 80-90% (1.2-2 mio cells/well). The medium was replaced by 1 mL fresh medium without fetal calf serum. The radiolabeled compound was added to the cell culture and incubated for different time intervals ranging from 10 min to 24 h. Competition experiments were performed by simultaneous exposure to unlabeled (10^−5 M to 10^−9 M) and radiolabeled compound for 60 min. For efflux experiments, radioactive medium was removed after incubation for 60 min and replaced by non-radioactive medium for time intervals ranging from 1 to 24 h. In all experiments, the cells were washed with 1 mL phosphate-buffered saline pH 7.4 for 2 times and subsequently lysed with 1.4 ml lysis buffer (0.3 M NaOH, 0.2% SDS). Radioactivity was determined in a γ-counter (Cobra II, Packard), normalized to 1 mio cells and calculated as percentage of the applied dose (% ID). Each experiment was performed 3 times, and 3 repetitions per independent experiment were acquired.

[1] = test system: HT-1080-FAP tumor xenografts; experiment: Organ distribution ex vivo in HT-1080-FAP tumor bearing nude mice; design: species or system mouse
Protocol: For in vivo experiments, 8 week old BALB/c nu/nu mice (Charles River) were subcutaneously inoculated into the right trunk with 5×10^6 with HT-1080-FAP, Capan-2 or SK-LMS-1 cells, respectively. When the size of the tumor reached approximately 1 cm^3, the radiolabeled compound was injected via the tail vein (˜10 MBq for small-animal PET imaging; ˜1 MBq for organ distribution). PET imaging was performed up to 140 min after intravenous injection of 1 MBq of Ga-68 labeled compound per mouse using the Inveon PET small-animal PET scanner (Siemens). Images were reconstructed iteratively using the 3D-OSEM+MAP method and were converted to standardized uptake value (SUV) images. Quantification was done using a ROI technique and expressed as SUV mean. For organ distribution of Lu-177 labeled compound (approx. […] per mouse), the animals (n=3 for each time point) were sacrificed after indicated time points (from 30 min to 24 h). The distributed radioactivity was measured in all dissected organs and in blood using a γ-counter (Cobra Autogamma, Packard). The values are expressed as percentage of injected dose per gram of tissue (% ID/g).

[2] = test system: tumor lesions and normal tissue of cancer patients; experiment: Clinical PET/CT imaging in cancer patients (SUV); assay type: in vivo, human
Protocol: Diagnostic imaging of more than 100 patients was performed under the conditions of the updated declaration of Helsinki, § 37 (Unproven interventions in clinical practice) and in accordance to the German Pharmaceuticals Law § 13 (2b) for medical reasons using either ^68Ga-FAPI-02 or -04, which was applied intravenously (20 nmol, 122-336 MBq), 10 min, 1 and 3 hours post tracer administration. Variation of injected radiotracer activity is due to the short half-life of ^68Ga and the variable elution efficiencies obtained during the lifetime of the ^68Ge/^68Ga generator. […] The PET/CT scans were performed with a Biograph mCT Flow™ PET/CT-Scanner (Siemens Medical Solution) using the following parameters: slice thickness of 5 mm, increment of 3-4 mm, soft-tissue reconstruction kernel, care dose. Immediately after CT scanning, a whole-body PET was acquired in 3D (matrix 200×200) in FlowMotion™ with 0.7 cm/min. The emission data were corrected for random, scatter and decay. Reconstruction was conducted with an ordered subset expectation maximisation (OSEM) algorithm with 2 iterations/21 subsets and Gauss-filtered to a transaxial resolution of 5 mm at full-width half-maximum (FWHM). Attenuation correction was performed using the low-dose non-enhanced CT data. The quantitative assessment of standardized uptake values (SUV) was done using a region of interest technique.
For the normal tissue of 16 organs, a 2 cm Spheric-VOI was placed in the parenchyma, for tumor lesions a threshold segmented VOI was used to quantify SUVmean/max^3.

[3] = Preliminary dosimetry estimate in patients; assay type: in vivo, human
[4] = biological target: recombinant human FAP protein (Homo sapiens (Human), UniProt Q12884); experiment: Enzyme inhibition assay with fluorogenic substrate Z-GP-AMC; assay type: biochemical; conditions: 0-1000 nM/well, 30 min at 37° C.
[5] = Blood pool clearance from SUVmean of the heart; assay type: in vivo
Source text: The calculated plateau values, which were higher for Ga-68 labeled FAPI-13, -21, -36 and AlF-18 labeled FAPI-74 theoretically correspond to a higher fraction of compound which is not cleared due to unspecific binding or by remaining in circulating (Table 12).

[6] = Lu-177 labeled, 1 h after i.v., HT-1080-FAP, mean ± SD, n = 3

Chain of recombinant human FAP protein (Q12884 whole entry): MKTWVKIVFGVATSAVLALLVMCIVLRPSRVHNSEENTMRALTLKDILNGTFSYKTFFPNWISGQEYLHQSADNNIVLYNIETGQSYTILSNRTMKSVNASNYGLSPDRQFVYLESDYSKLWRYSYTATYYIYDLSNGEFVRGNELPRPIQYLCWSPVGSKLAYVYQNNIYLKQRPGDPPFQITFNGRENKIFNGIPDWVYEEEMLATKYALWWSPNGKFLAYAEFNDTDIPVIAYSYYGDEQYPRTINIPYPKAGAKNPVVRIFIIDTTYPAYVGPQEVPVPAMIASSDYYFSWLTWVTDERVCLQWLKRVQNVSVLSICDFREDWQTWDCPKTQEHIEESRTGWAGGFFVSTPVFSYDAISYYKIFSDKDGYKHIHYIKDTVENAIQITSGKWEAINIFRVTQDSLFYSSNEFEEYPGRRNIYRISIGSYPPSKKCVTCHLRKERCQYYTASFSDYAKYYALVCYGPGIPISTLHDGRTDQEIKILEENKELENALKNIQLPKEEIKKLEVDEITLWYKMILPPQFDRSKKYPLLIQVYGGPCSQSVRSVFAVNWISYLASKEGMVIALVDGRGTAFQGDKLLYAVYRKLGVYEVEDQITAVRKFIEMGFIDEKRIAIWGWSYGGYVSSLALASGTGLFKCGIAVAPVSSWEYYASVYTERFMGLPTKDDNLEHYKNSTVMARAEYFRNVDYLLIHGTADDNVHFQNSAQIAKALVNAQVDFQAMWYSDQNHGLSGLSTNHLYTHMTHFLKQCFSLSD

## N#C[C@@H]1CC(F)(F)CN1C(=O)CNC(=O)c1ccnc2ccc(OCCCN3CCN(C(=O)CN4CCN(CC(=O)O)CCN(CC(=O)O)CCN(CC(=O)O)CC4)CC3)cc12 [FAPI-04]
HT-1080-FAP cells
  retention of the originally accumulated radioactivity (efflux): 49%
[1]; 177Lu labeled, after 2 h
  highest enrichment within the FAP-expressing tumor: 5.4 % ID/g
[1]; HT-1080-FAP tumor bearing nude mice, 1 h, mean ± SD, n = 3
  Tumor uptake 1 h: 4.9 ± 0.82 % ID/g
[1]; HT-1080-FAP tumor bearing nude mice, 4 h, mean ± SD, n = 3
  Tumor uptake 4 h: 5.4 ± 1.51 % ID/g
[1]; HT-1080-FAP tumor bearing nude mice, 24 h, mean ± SD, n = 3
  Tumor uptake 24 h: 3.0 ± 0.23 % ID/g
[1]; [6]
  Blood uptake: 1.70 ± 0.206 % ID/g
  Brain uptake: 0.08 ± 0.010 % ID/g
  Heart uptake: 0.80 ± 0.089 % ID/g
  Intestines uptake: 0.66 ± 0.196 % ID/g
  Kidneys uptake: 2.28 ± 0.477 % ID/g
  Liver uptake: 0.73 ± 0.118 % ID/g
  Lungs uptake: 1.50 ± 0.151 % ID/g
  Muscle uptake: 0.92 ± 0.020 % ID/g
  Spleen uptake: 0.48 ± 0.072 % ID/g
  Tumor uptake: 4.89 ± 0.817 % ID/g
[2]; 68Ga labeled, 1 h after i.v. administration, patients
  maximum SUV values in primary tumor, lymph node and bone metastases: ≤ 48.0
[2]; 68Ga labeled, 1 h p.i.
  background activity (SUV): 2
[2]; 68Ga labeled, 1 h p.i., renal cell, differentiated thyroid, adenoid-cystic, gastric carcinoma, pheochromocytoma
  average SUVmax, lowest uptake group: < 6
[2]; 68Ga labeled, 1 h p.i., sarcoma, esophageal, breast, cholangiocellular carcinoma, lung cancer
  average SUVmax, highest uptake group: > 12
[2]; from 1 h to 3 h p.i., patients
  decrease of tumor uptake (washout): 50%
[3]; 200 MBq Ga-68
  equivalent dose of an exam: 3-4 mSv
[3]; calculated with IDAC1/ICRP60
  effective dose: 1.66E-02 mSv/MBq
[3]; calculated with IDAC2/ICRP103
  effective dose: 1.35E-02 mSv/MBq
[3]; calculated with OLINDA
  effective dose: 1.64E-02 mSv/MBq
[4]
  inhibition of enzymatic FAP activity: robust, dose-dependent FAP inhibition
[5]; hypothetical plateau, two phase exponential decay of heart SUVmean
  Plateau value (SUVmean): 0.21
[5]; rate determining half-life, two phase exponential decay of heart SUVmean 0.375-60 min
  Blood pool-clearence (T1/2 [min]): 7.1 min
